pIC50: −log10 of the molar value.
How the values were obtained:
[1] = system: endogenous ceramide levels in HL-60 cells; conditions: HL-60, TLC of ceramide phosphates
Method: Ceramide and diacylglycerol levels were measured on total liquid extracts using the diacylglycerol kinase assay (Jayadev et al, J. Biol. Chem. 270:2047 (1995)).
Therefore, HL-60 cells were treated with 5 μM D-e-MAPP, ethanol vehicle or L-e-MAPP for 0-24 h. At the indicated time points (FIG. 4A), total lipids were extracted and endogenous ceramide levels were measured by the Escherichia coli diacylglycerol kinase assay.
The upper spot of ceramide phosphate co-migrated with synthetic D-erythro-C18 dihydroceramide phosphate whereas the lower spot co-migrated with D-erythro-C18 ceramide phosphate.

[2] = system: ceramide-activated protein phosphatase (CAPP); test: CAPP serine/threonine phosphatase activity in vitro; format: biochemical; conditions: myelin basic protein phosphorylated by protein kinase A as substrate
[3] = system: alkaline ceramidase; test: Alkaline ceramidase activity in vitro at pH 9.0; format: biochemical, human; conditions: for use as substrate by alkaline ceramidase: 50 μM tritium-labeled substrate, HL-60 preparation
Method: Measurement of ceramidase activity in HL-60 cells. Ceramidase activity in HL-60 cells was measured by a modification of the method of Gatt and Yavin (Methods Enzymol. 14:139 (1969)). Cells were disrupted by sonication in 0.25M sucrose, 1 mM EDTA, and centrifuged at 10,000×g for 10 min after which the supernatant was centrifuged at 100,000×g for 60 min. Ten μl of 1 mM ceramide substrate ([^3 H]C16 -ceramide) was mixed with 100 μl of Triton X-100 (0.1%) in chloroform/methanol, 2:1, and 100 μl of 0.2% sodium cholate in chloroform/methanol, 2:1, after which the solvent was evaporated under N2 at 70° C. To this mixture, 30 μl of water was added and the tubes were heated for 5 s in an 80° C. water bath and then put on ice. Fifty μl of the appropriate buffer depending on desired pH was added followed by 20 μl of 50 mM MgCl2 and 100 μl of cell extract. In experiments using inhibitors, the desired inhibitor was added in ethanol either with the substrate or directly to the final solution. The reaction mixture was incubated for 1 h at 37° C. The ^3 H-fatty acid products of ceramidase were separated by the addition of 2 ml of Dole's solution (isopropyl alcohol, heptane, NaOH), 1.2 ml of heptane, and 1 ml of water. After vortexing and centrifugation, the upper phase was discarded and the lower phase was washed twice with heptane and the upper phase discarded each time. Finally, 1 ml of 1N H2 SO4, and 2 ml of heptane were added, and after vortexing and centrifugation the upper phase was transferred for counting by liquid scintillation.
In order to evaluate the interactions of D- and L-e-MAPP with ceramidase, in vitro studies we conducted using cytosolic and membrane fractions from HL-60 cells. Initially, ceramidase activity was examined for pH dependence using tritium-labeled C16 -ceramide as substrate. […] The alkaline ceramidase activity was very similar to that described in fibroblasts and cerebellar tissue (Sugita et al, Biochim. Biophys. Acta 398:125 (1975), Wertz and Downing, FEBS Lett. 268:110 (1990)). In initial studies, the ability of this ceramidase to utilize D-e- and L-e-MAPP as substrates was investigated. […] These studies corroborate the cellular metabolism studies showing that L-e-MAPP is a substrate for ceramidase in vitro and in cells.
Next, the ability of D- and L-e-MAPP to interfere with hydrolysis of C16 -ceramide by ceramidase at pH 4.5 and 9.0 was evaluated. Inhibition of ceramidase activity by D-e-MAPP was compared to that by N-oleoylethanolamine, a putative inhibitor of acid ceramidase (Sugita et al, Biochim. Biophys. Acta 398:125 (1975)). […] The effects of N-oleoylethanolamine are consistent with the previously reported Ki of 700 μM (Sugita et al, Biochim. Biophys. Acta 398:125 (1975)). […] In contrast, D-e-MAPP was a relatively poor inhibitor of acid ceramidase with less than 10% inhibition of acid ceramidase at 50 μM (FIG. 6C).

[4] = system: HL-60 cells; test: Cellular metabolism of tritium-labeled compounds (TLC); format: cell-based, human; conditions: HL-60, 5 μM, TLC
Method: (§1) Metabolism studies. Lipids from cells treated with ^3 H-labeled compounds were extracted (Bligh & Dyer method), dried, resuspended in chloroform/methnol (10:1, v/v), and subjected to separation by TLC in chloroform/methanol (4:1, v/v). Spots containing radioactive compounds were scraped and radioactivity was measured using a scintillation counter.
(§2) Next, the metabolism of D- and L-e-MAPP was evaluated. To this end, organic lipids were extracted from cells treated with 5 μM D- or L-e-MAPP at the indicated time points (FIG. 5D), and lipids were resolved on TLC. […] On the other hand, L-e-MAPP underwent significant metabolism in a time-dependent fashion such that by 24 h, more than 70% of the L-e-MAPP taken up by cells was metabolized (FIG. 5, D and E). Two major breakdown products of L-e-MAPP were resolved by TLC. One metabolite co-migrated with […] and not with other neutral or polar lipids. The other metabolite (upper spot in FIG. 5D) comigrated with triacylglycerol.

[5] = target: T1, β-glucosidase (Homo sapiens, UniProt P04062); test: Glucocerebrosidase assay in vitro; format: biochemical
T1 sequence (P04062 40-536): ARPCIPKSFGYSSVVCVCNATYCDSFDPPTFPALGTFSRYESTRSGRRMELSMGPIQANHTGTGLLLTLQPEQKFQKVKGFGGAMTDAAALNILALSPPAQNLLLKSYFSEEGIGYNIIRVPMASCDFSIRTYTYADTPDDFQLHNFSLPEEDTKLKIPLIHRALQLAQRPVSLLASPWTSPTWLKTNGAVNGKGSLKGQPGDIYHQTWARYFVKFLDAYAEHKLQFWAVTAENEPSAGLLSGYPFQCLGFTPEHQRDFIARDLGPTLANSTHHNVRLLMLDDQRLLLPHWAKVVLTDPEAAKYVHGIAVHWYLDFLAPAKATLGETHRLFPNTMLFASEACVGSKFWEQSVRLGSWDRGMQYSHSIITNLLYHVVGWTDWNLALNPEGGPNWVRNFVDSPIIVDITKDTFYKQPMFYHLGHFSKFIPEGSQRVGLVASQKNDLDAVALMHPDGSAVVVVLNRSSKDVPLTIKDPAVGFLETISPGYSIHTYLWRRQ
Method: Glucocerebrosidase and glucocerebroside synthase assays. In vitro assays for gluccerebrosidase and for cerebroside synthase were performed as described (Abe et al, J. Biochem. (Tokyo) 11:191 (1992)).
In addition to ceramidase, inhibition of cerebroside synthase and sphingomyelin synthase or stimulation of sphingomyelinase or cerebrosidase could result in elevations in endogenous ceramide levels. Therefore, the effects of D- and L-e-MAPP were examined on these enzyme activities in vitro and in cells.

[6] = system: ceramidase in HL-60 cells; test: Inhibition of L-e-MAPP metabolism in cells (ceramidase activity in cells); format: cell-based, human
Method: as §1
Since D-e-MAPP inhibits ceramidase in cells, then it should also protect L-e-MAPP from metabolic degradation. Therefore, the effects of D-e-MAPP on metabolism of L-e-MAPP were examined. HL-60 cells were treated with tritium-labeled L-e-MAPP (3 μM), and the metabolism of L-e-MAPP was evaluated in the presence and absence of 3 μM D-e-MAPP. […] The effects of D-e-MAPP on metabolism of L-e-MAPP were dose dependent with most of the inhibition occurring at levels of D-e-MAPP of 1-3 μM (FIG. 8B).

[7] = Cellular metabolism of tritium-labeled compounds (TLC); format: cell-based, human; conditions: human, hl-60 cells; HL-60, 5 μM, by 24 h; read-out: fraction of compound taken up that was metabolized
Method: as §1, §2

metabolised at 24 h, 5 µM [7] | Structure (SMILES) | selectivity of increase, ceramide versus dihydroceramide [1] | activation of CAPP in vitro [2] | use as substrate by alkaline ceramidase [3] | inhibition of alkaline ceramidase in vitro ([3]; final concentration of 5 μM) | pIC50 ([3]; pH 9.0, 50 μM C16-ceramide substrate) | metabolism in cells [4] | effect on activity of β-glucosidase [5] | effect on breakdown of L-e-MAPP in cells ([6]; HL-60, 3 μM tritium-labeled L-e-MAPP, 3 μM D-e-MAPP) | levels at which most of the inhibition of L-e-MAPP metabolism occurs ([6]; HL-60, dose dependence)
– | CCCCCCCCCCCCCC(=O)N[C@H](C)[C@@H](O)c1ccccc1 [D-e-MAPP, D-erythro-2-(N-myristolyamino)-1-phenyl-1-propanol] | selective increase in ceramide but not dihydroceramide levels | neither D-e-MAPP nor L-e-MAPP activated CAPP | not substrate for the alkaline ceramidase | approximately 60% | 5.30 to 6.00 | showed little metabolism and remained intact | did not activate or modulate | prevented the breakdown of L-e-MAPP | 1 to 3 µM
> 70% | CCCCCCCCCCCCCC(=O)N[C@@H](C)[C@H](O)c1ccccc1 [L-e-MAPP, L-erythro-2-(N-myristolyamino)-1-phenyl-1-propanol] | – | neither D-e-MAPP nor L-e-MAPP activated CAPP | readily hydrolyzed by ceramidase to a level equivalent to that seen with C16 -ceramide | – | – | – | did not activate or modulate | – | –

Source: patent US5851782A, “Inhibitors of ceramidase” (Duke University, priority 1996, dated 1998)
